Measured values from PMC9687610, “Adenosine-Mimicking Derivatives of 3-Aminopyrazine-2-Carboxamide: Towards Inhibitors of Prolyl-tRNA Synthetase with Antimycobacterial Activity” (Biomolecules, 2022).
Converted amounts (≈) assume the structure as drawn. Read-outs that look alike come from different tables or passages of the source.

How the values were obtained:
[1] = test system: Mycobacterium smegmatis DSM 43465 (ATCC 607); assay: Microplate Alamar Blue Assay (MABA), M. smegmatis; format: cell-based; conditions: Mycolicibacterium smegmatis, read-out: M. smegmatis MIC
[2] = test system: Candida tropicalis CCM 8264 (ATCC 750); assay: Antifungal microdilution broth (EUCAST), CT; format: cell-based; conditions: Candida tropicalis; read after 24 h; read-out: CT MIC
[3] = test system: Candida parapsilosis CCM 8260 (ATCC 22019); assay: Antifungal microdilution broth (EUCAST), CP; format: cell-based; conditions: Lodderomyces parapsilosis; read after 24 h; read-out: CP MIC
[4] = test system: Aspergillus fumigatus ATCC 204305; assay: Antifungal microdilution broth (EUCAST), AF; format: cell-based; conditions: Aspergillus fumigatus, ATCC204305; read after 24 h; read-out: AF MIC
[5] = test system: Aspergillus flavus CCM 8363; assay: Antifungal microdilution broth (EUCAST), AFla; format: cell-based; conditions: Aspergillus flavus, CCM8363; read after 24 h; read-out: AFla MIC
[6] = test system: Staphylococcus epidermidis CCM 4418 (ATCC 12228); assay: Antibacterial microdilution broth (EUCAST), SE; format: cell-based; conditions: read after 24 h, read-out: SE MIC
[7] = test system: Klebsiella pneumoniae CCM 4415 (ATCC 10031); assay: Antibacterial microdilution broth (EUCAST), KP; conditions: read after 24 h
[8] = test system: Staphylococcus aureus subsp. aureus methicillin-resistant (MRSA) CCM 4750 (ATCC 43300); assay: Antibacterial microdilution broth (EUCAST), MRSA; format: cell-based; conditions: Staphylococcus aureus; read after 24 h; read-out: MRSA MIC
[9] = test system: Acinetobacter baumannii DSM 30007 (ATCC 19606); assay: Antibacterial microdilution broth (EUCAST), ACI; format: cell-based; conditions: Acinetobacter baumannii; read after 24 h; read-out: ACI MIC
[10] = test system: Candida albicans CCM 8320 (ATCC 24433); assay: Antifungal microdilution broth (EUCAST), CA; format: cell-based; conditions: Candida albicans; read after 24 h; read-out: CA MIC
[11] = test system: Trichophyton interdigitale CCM 8377 (ATCC 9533); assay: Antifungal microdilution broth (EUCAST), TI; format: cell-based; conditions: Trichophyton interdigitale, 72 h, read-out: TI MIC
[12] = test system: M. aurum DSM 43999 (ATCC 23366); assay: Microplate Alamar Blue Assay (MABA), M. aurum; format: cell-based; conditions: Mycolicibacterium aurum, read-out: M. aurum MIC
[13] = test system: Lichtheimia corymbifera CCM 8077; assay: Antifungal microdilution broth (EUCAST), LC; format: cell-based; conditions: Lichtheimia corymbifera, CCM8077; read after 24 h; read-out: LC MIC
[14] = test system: Candida krusei CCM 8271 (ATCC 6258); assay: Antifungal microdilution broth (EUCAST), CK; format: cell-based; conditions: Pichia kudriavzevii; read after 24 h; read-out: CK MIC
[15] = test system: Enterococcus faecalis CCM 4224 (ATCC 29212); assay: Antibacterial microdilution broth (EUCAST), EF; format: cell-based; conditions: Enterococcus faecalis; read after 24 h; read-out: EF MIC
[16] = test system: Pseudomonas aeruginosa CCM 3955 (ATCC 27853); assay: Antibacterial microdilution broth (EUCAST), PA; format: cell-based; conditions: Pseudomonas aeruginosa; read after 24 h; read-out: PA MIC
[17] = test system: HepG2 human hepatocellular carcinoma cells; assay: In vitro HepG2 cytotoxicity (CellTiter 96); conditions: Homo sapiens, HepG2, 24 h, read-out: HepG2 IC50, 24 h incubation; * limit = highest evaluated concentration (precipitation in medium); ** over the 1000 µM limit
[18] = test system: Mycobacterium tuberculosis H37Ra ITM-M006710 (ATCC 9431); assay: Microplate Alamar Blue Assay (MABA), Mtb H37Ra; format: cell-based; conditions: for MIC: Mycobacterium tuberculosis, 120 h, pH 6.6, MABA, Middlebrook 7H9 broth pH 6.6, resazurin after 120 h, read-out: Mtb H37Ra MIC
[19] = test system: Escherichia coli CCM 3954 (ATCC 25922); assay: Antibacterial microdilution broth (EUCAST), EC; format: cell-based; conditions: Escherichia coli; read after 24 h; read-out: EC MIC
[20] = test system: Staphylococcus aureus subsp. aureus CCM 4223 (ATCC 29213); assay: Antibacterial microdilution broth (EUCAST), SA; format: cell-based; conditions: Staphylococcus aureus; read after 24 h; read-out: SA MIC

| Compound | MIC [2] [µM] | MIC [3] [µM] | MIC [4] [µM] | MIC [5] [µM] | MIC [6] [µM] | KP MIC [7] [µM] | MIC [8] [µM] | MIC [9] [µM] | MIC [10] [µM] | MIC [11] [µM] | MIC ([12]; MABA, resazurin after 72 h) [µg/mL] | MIC [13] [µM] | MIC [14] [µM] | melting point [°C] | MIC [15] [µM] | MIC [16] [µM] | IC50 [17] [µM] | MIC [18] [µg/mL] | MIC [19] [µM] | MIC [20] [µM] | other results |
| --- | --- | --- | --- | --- | --- | --- | --- | --- | --- | --- | --- | --- | --- | --- | --- | --- | --- | --- | --- | --- | --- |
| CCCCCCCC(=O)Nc1nccnc1C(N)=O [Compound 32] | > 250 | > 250 | > 250 | > 250 | > 250 | > 250 | > 250 | > 250 | > 250 | > 250 | 125 (≈ 473 µM) | > 250 | > 250 | 127.9 to 129.3 | > 250 | > 250 | > 1000 | 250 (≈ 946 µM) | > 250 | > 250 | MIC ([1]; MABA, resazurin after 48 h): 250 µg/mL (≈ 946 µM) |
| O=c1[nH]c(-c2ccccc2)nc2nccnc12 [Compound 39] | > 125 | > 125 | > 125 | > 125 | > 125 | > 125 | > 125 | > 125 | > 125 | > 125 | 125 (≈ 557 µM) | > 125 | > 125 | 283.5 to 284.5 | > 125 | > 125 | > 1000 | 62.5 (≈ 279 µM) | > 125 | > 125 | MIC ([1]; MABA, resazurin after 48 h): ≥ 500 µg/mL |
| COc1ccc(C(=O)Nc2nccnc2C(N)=O)cc1 [Compound 9] | > 125 | > 125 | > 125 | > 125 | > 125 | > 125 | > 125 | > 125 | > 125 | > 125 | – | > 125 | > 125 | 257 to 258.5 | > 125 | > 125 | > 250 | ≥ 125 | > 125 | > 125 | MIC ([1]; 48 h): ≥ 125 µg/mL; MIC ([12]; 72 h): ≥ 125 µg/mL |
| NC(=O)c1nccnc1NC(=O)CCc1ccccc1 [Compound 26] | > 500 | > 500 | > 500 | > 500 | > 500 | > 500 | > 500 | > 500 | > 500 | > 500 | ≥ 500 | > 500 | > 500 | 160.3 to 161.5 | > 500 | > 500 | > 500 | 125 (≈ 462 µM) | > 500 | > 500 | MIC ([1]; MABA, resazurin after 48 h): ≥ 500 µg/mL; antimycobacterial activity (in words) ([18]; activity refers to Mtb H37Ra from the primary screening if not otherwise stated): inactive |
| Cc1ccc(-c2nc3nccnc3c(=O)[nH]2)cc1 [Compound 40] | > 125 | > 125 | > 125 | > 125 | > 125 | > 125 | > 125 | > 125 | > 125 | > 125 | 250 (≈ 1050 µM) | > 125 | > 125 | 300.5 to 302 | > 125 | > 125 | > 1000 | 31.2 (≈ 131 µM) | > 125 | > 125 | MIC ([1]; MABA, resazurin after 48 h): ≥ 250 µg/mL |
| NC(=O)c1nccnc1NC(=O)c1ccccc1Br [Compound 16] | > 500 | > 500 | > 500 | > 500 | > 500 | > 500 | > 500 | > 500 | > 500 | > 500 | ≥ 250 | > 500 | > 500 | 223.1 to 225.1 | > 500 | > 500 | > 500 | ≥ 250 | > 500 | > 500 | MIC ([1]; MABA, resazurin after 48 h): ≥ 250 µg/mL |
| NC(=O)c1nccnc1NC(=O)C1CCCCC1 [Compound 27] | > 500 | > 500 | > 500 | > 500 | > 500 | > 500 | > 500 | > 500 | > 500 | > 500 | ≥ 500 | > 500 | > 500 | 105.5 to 107 | > 500 | > 500 | > 1000 | 125 (≈ 503 µM) | > 500 | > 500 | MIC ([1]; MABA, resazurin after 48 h): 250 µg/mL (≈ 1010 µM) |
| CC(C)(C)c1ccc(C(=O)Nc2nccnc2C(N)=O)cc1 [Compound 6] | > 125 | > 125 | > 125 | > 125 | > 125 | > 125 | > 125 | > 125 | > 125 | > 125 | ≥ 500 | > 125 | > 125 | 210 to 211.5 | > 125 | > 125 | 114 | 15.6 (≈ 52.4 µM) | > 125 | > 125 | MIC ([1]; 48 h): 15.6 µg/mL (≈ 52.4 µM) |
